Results on 22 compounds are retold here after patent US20140120087A1, “TRIAZOLOPYRIDINES” (BAYER INTELLECTUAL PROPERTY GMBH, priority 2011, published 2014).

Test [1] deals with T1, Mps-1 kinase (Homo sapiens, UniProt P33981).
T1 sequence (P33981 1-857): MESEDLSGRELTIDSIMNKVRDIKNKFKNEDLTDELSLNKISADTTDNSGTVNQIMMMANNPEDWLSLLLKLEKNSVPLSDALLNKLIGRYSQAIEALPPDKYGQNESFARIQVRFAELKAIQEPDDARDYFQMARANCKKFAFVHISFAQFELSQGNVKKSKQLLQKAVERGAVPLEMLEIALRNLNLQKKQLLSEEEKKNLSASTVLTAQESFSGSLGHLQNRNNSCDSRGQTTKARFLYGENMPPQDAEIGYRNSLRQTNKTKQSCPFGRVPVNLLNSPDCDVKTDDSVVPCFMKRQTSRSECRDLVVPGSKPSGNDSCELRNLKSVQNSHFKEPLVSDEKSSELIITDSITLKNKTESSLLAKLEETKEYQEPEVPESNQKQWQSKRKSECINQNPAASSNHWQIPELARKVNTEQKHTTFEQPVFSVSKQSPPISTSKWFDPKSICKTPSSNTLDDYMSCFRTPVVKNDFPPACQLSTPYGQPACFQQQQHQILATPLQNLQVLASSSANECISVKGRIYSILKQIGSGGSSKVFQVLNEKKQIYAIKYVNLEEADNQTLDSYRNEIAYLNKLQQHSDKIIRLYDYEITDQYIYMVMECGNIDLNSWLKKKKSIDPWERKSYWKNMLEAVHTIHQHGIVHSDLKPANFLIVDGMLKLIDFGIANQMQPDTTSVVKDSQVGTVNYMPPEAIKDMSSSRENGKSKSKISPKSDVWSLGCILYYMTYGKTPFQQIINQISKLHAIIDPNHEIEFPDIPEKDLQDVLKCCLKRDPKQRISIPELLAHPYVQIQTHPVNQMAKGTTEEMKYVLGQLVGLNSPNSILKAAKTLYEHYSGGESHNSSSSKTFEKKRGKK
Put plainly: Mps-1 kinase assay with 2 mM ATP (TR-FRET).

Test [2] concerns the target T1, Mps-1 kinase. Put plainly: Mps-1 kinase assay with 10 μM ATP (TR-FRET).

For the compound `CS(=O)(=O)c1ccc(Nc2nc3ccc(-c4ccc(C(=O)NCc5ccc(F)cc5)cc4)cn3n2)c(OC2CC2)c1` [Example 02.29, 4-(2-{[2-(cyclopropyloxy)-4-(methylsulfonyl)phenyl]amino}[1,2,4]triazolo-[1,5-α]pyridin-6-yl)-N-(4-fluorobenzyl)benzamide], the values for the IC50 at Mps-1 kinase [1] and on Mps-1 kinase [2] were 7.5 nM and at most 1 nM, respectively.

For `CCOc1cc(S(C)(=O)=O)ccc1Nc1nc2ccc(-c3ccc(C(=O)NCc4ccc(F)cc4)cc3)cn2n1` [Example 02.25, 4-(2-{[2-ethoxy-4-(methylsulfonyl)phenyl]amino}[1,2,4]triazolo[1,5-α]-pyridin-6-yl)-N-(4-fluorobenzyl)benzamide], the IC50 was 3.3 nM against Mps-1 kinase [1] and at most 1 nM against Mps-1 kinase [2].

Turning to `CS(=O)(=O)c1ccc(Nc2nc3ccc(-c4ccc(NC(=O)Cc5ccc(F)cc5)cc4)cn3n2)c(OC2CC2)c1` [Example 01.37, N-[4-(2-{[2-(cyclopropyloxy)-4-(methylsulfonyl)phenyl]amino}[1,2,4]-triazolo[1,5-α]pyridin-6-yl)phenyl]-2-(4-fluorophenyl)acetamide], the IC50 against Mps-1 kinase [1] was 1.6 nM; at Mps-1 kinase [2] it was at most 1 nM.

With `CS(=O)(=O)c1ccc(Nc2nc3ccc(-c4ccc(NC(=O)Cc5ccc(F)cc5)cc4)cn3n2)c(OC(F)F)c1` [Example 01.35, N-[4-(2-{[2-(difluoromethoxy)-4-(methylsulfonyl)phenyl]amino}[1,2,4]-triazolo[1,5-α]pyridin-6-yl)phenyl]-2-(4-fluorophenyl)acetamide], the IC50 against Mps-1 kinase [1] was 1.2 nM; against Mps-1 kinase [2], at most 1 nM.

In the case of `COc1cc(C(C)(C)O)ccc1Nc1nc2ccc(-c3ccc(C(=O)NCc4ccc(F)cc4)c(OC)c3)cn2n1` [Example 12.81, N-(4-fluorobenzyl)-4-(2-{[4-(2-hydroxypropan-2-yl)-2-methoxyphenyl]amino}-[1,2,4]triazolo[1,5-a]pyridin-6-yl)-2-methoxybenzamide], the IC50 was 7.3 nM at Mps-1 kinase [1] and at most 1 nM at Mps-1 kinase [2].

Take `CCOc1cc(C(=O)N(C)CC)ccc1Nc1nc2ccc(-c3ccc(NC(=O)Cc4ccc(F)cc4)cc3)cn2n1` [Example 12.19, 3-ethoxy-N-ethyl-4-{[6-(4-{[(4-fluorophenyl)acetyl]-amino}phenyl)[1,2,4]-triazolo[1,5-a]pyridin-2-yl]amino}-N-methyl-benzamide]: the IC50 against Mps-1 kinase [1] and against Mps-1 kinase [2] was at most 1 nM in each case.

For the compound `COc1cc(C(=O)NCC(F)(F)F)ccc1Nc1nc2ccc(-c3ccc(NC(=O)Cc4ccc(F)cc4)cc3)cn2n1` [Example 01.31, 4-{[6-(4-{[(4-fluorophenyl)acetyl]amino}phenyl)[1,2,4]triazolo[1,5-α]-pyridin-2-yl]amino}-3-methoxy-N-(2,2,2-trifluoroethyl)benzamide], the results for the IC50 against Mps-1 kinase [1] and on Mps-1 kinase [2] were 5 nM and at most 1 nM, respectively.

`Cc1cc(C(=O)N(C)C)ccc1Nc1nc2ccc(-c3ccc(NC(=O)Cc4ccc(F)cc4)cc3)cn2n1` [Example 12.31, 4-{[6-(4-{[(4-fluorophenyl)-acetyl]amino}phenyl)[1,2,4]triazolo[1,5-a]pyridin-2-yl]amino}-N,N,3-trimethyl-benzamide]: the figures for the IC50 against Mps-1 kinase [1] and on Mps-1 kinase [2] were 3.8 nM and at most 1 nM, respectively.

As to `Cc1ccc(CNC(=O)c2ccc(-c3ccc4nc(Nc5ccc([S@@+](C)[O-])cc5C)nn4c3)cc2)cc1` (stereo in doubt) [Example 12.78, N-(4-methylbenzyl)-4-(2-{[2-methyl-4-(methylsulfinyl)-phenyl]amino}[1,2,4]triazolo [1,5-a]pyridin-6-yl)-benzamide], the half-maximal inhibitory concentration (IC50) on Mps-1 kinase [1] was 7.6 nM; against Mps-1 kinase [2], at most 1 nM.

As for `CN(C)CCNC(=O)c1ccc(Nc2nc3ccc(-c4ccc(C(=O)NCc5ccc(F)cc5)cc4)cn3n2)c(OCC(F)(F)F)c1` [Example 12.58, N-[2-(dimethylamino)ethyl]-4-[(6-{4-[(4-fluorobenzyl)-carbamoyl]phenyl}[1,2,4]triazolo [1,5-a]pyridin-2-yl)-amino]-3-(2,2,2-trifluoro-ethoxy)benzamide], the IC50 on Mps-1 kinase [1] and against Mps-1 kinase [2] was at most 1 nM throughout.

As for `COCCNC(=O)c1ccc(Nc2nc3ccc(-c4ccc(NC(=O)Cc5ccc(F)cc5)cc4)cn3n2)c(OC)c1` [Example 12.01, 4-{[6-(4-{[(4-fluorophenyl)-acetyl]amino}phenyl)[1,2,4]triazolo[1,5-a]pyridin-2-yl]amino}-3-methoxy-N-(2-methoxyethyl)benzamide], the half-inhibitory concentration (IC50) on Mps-1 kinase [1] and against Mps-1 kinase [2] was at most 1 nM in each case.

For `CS(=O)(=O)c1ccc(Nc2nc3ccc(-c4ccc(C(=O)NCc5ccc(F)cc5)cc4)cn3n2)c(OC(F)F)c1` [Example 02.28, 4-(2-{[2-(difluoromethoxy)-4-(methylsulfonyl)phenyl]amino}[1,2,4]triazolo-[1,5-α]pyridin-6-yl)-N-(4-fluorobenzyl)benzamide], the IC50 at Mps-1 kinase [1] is 3.5 nM; on Mps-1 kinase [2], at most 1 nM.

Consider `COc1cc(CO)ccc1Nc1nc2ccc(-c3ccc(NC(=O)Cc4ccc(F)cc4)cc3)cn2n1` [Example 12.84, 2-(4-fluorophenyl)-N-[4-(2-{[4-(hydroxymethyl)-2-methoxyphenyl]amino}-[1,2,4]triazolo[1,5-α]pyridin-6-yl)phenyl]acetamide], for which the concentration for half-maximal inhibition (IC50) against Mps-1 kinase [1] and at Mps-1 kinase [2] was at most 1 nM in each case.

With `COc1cc(C(=O)NCCF)ccc1Nc1nc2ccc(-c3ccc(NC(=O)Cc4ccc(F)cc4)cc3)cn2n1` [Example 12.05, N-(2-fluoroethyl)-4-{[6-(4-{[(4-fluorophenyl)acetyl]-amino}phenyl)[1,2,4]-triazolo[1,5-a]pyridin-2-yl]amino}-3-methoxy-benzamide], the IC50 against Mps-1 kinase [1] and against Mps-1 kinase [2] was at most 1 nM in each case.

Regarding `CCOc1cc(S(=O)(=O)CC)ccc1Nc1nc2ccc(-c3ccc(C(=O)NCc4ccc(F)cc4)cc3)cn2n1` [Example 02.26, 4-(2-{[2-ethoxy-4-(ethylsulfonyl)phenyl]amino}[1,2,4]triazolo[1,5-α]-pyridin-6-yl)-N-(4-fluorobenzyl)benzamide], the IC50 at Mps-1 kinase [1] was 6.1 nM; on Mps-1 kinase [2], at most 1 nM.

Turning to `COc1cc(C(=O)N(C)CCN(C)C)ccc1Nc1nc2ccc(-c3ccc(NC(=O)Cc4ccc(F)cc4)cc3)cn2n1` [Example 12.08, N-[2-(dimethylamino)ethyl]-4-{[6-(4-{[(4-fluorophenyl)-acetyl]amino}phenyl)[1,2,4]triazolo[1,5-a]pyridin-2-yl]amino}-3-methoxy-N-methylbenzamide], the IC50 against Mps-1 kinase [1] and on Mps-1 kinase [2] was at most 1 nM throughout.

For `COc1cc(S(C)(=O)=O)ccc1Nc1nc2ccc(-c3ccc(C(=O)NCc4ccc(F)cc4F)cc3)cn2n1` [Example 11.01, N-(2,4-difluorobenzyl)-4-(2-{[2-methoxy-4-(methylsulfonyl)phenyl]amino}-[1,2,4]triazolo[1,5-α]pyridin-6-yl)benzamide], the 50% inhibitory concentration (IC50) against Mps-1 kinase [1] is 11 nM; against Mps-1 kinase [2] it was at most 1 nM.

With `COc1cc(C(=O)NCCN(C)C)ccc1Nc1nc2ccc(-c3ccc(C(=O)NCc4ccc(F)cc4)cc3)cn2n1` [Example 12.48, N-[2-(dimethylamino)ethyl]-4-[(6-{4-[(4-fluorobenzyl)-carbamoyl]phenyl}[1,2,4]triazolo [1,5-a]pyridin-2-yl)amino]-3-methoxy-benzamide], the IC50 against Mps-1 kinase [1] was 1.3 nM; against Mps-1 kinase [2] it was at most 1 nM.

`COc1ccc(Nc2nc3ccc(-c4ccc(C(=O)NCc5ccc(F)cc5)cc4)cn3n2)c(C)c1` [Example 12.71, N-(4-fluorobenzyl)-4-{2-[(4-methoxy-2-methylphenyl)-amino][1,2,4]triazolo[1,5-a]pyridin-6-yl}benzamide]: the IC50 was 8.8 nM at Mps-1 kinase [1] and at most 1 nM against Mps-1 kinase [2].

For the compound `CCNC(=O)c1cc(C)c(Nc2nc3ccc(-c4ccc(NC(=O)Cc5ccc(F)cc5)cc4)cn3n2)cn1` [Example 12.37, N-ethyl-5-{[6-(4-{[(4-fluoro-phenyl)acetyl]amino}-phenyl)[1,2,4]triazolo[1,5-a]pyridin-2-yl]amino}-4-methylpyridine-2-carboxamide], the IC50 against Mps-1 kinase [1] is 13 nM; against Mps-1 kinase [2], at most 1 nM.

Regarding `COc1cc(S(C)(=N)=O)ccc1Nc1nc2ccc(-c3ccc(C(=O)NCc4ccc(F)cc4)cc3)cn2n1` (stereo not drawn) [Example 12.83, N-(4-fluorobenzyl)-4-(2-{[2-methoxy-4-(S-methylsulfonimidoyl)phenyl]-amino}[1,2,4]triazolo[1,5-α]pyridin-6-yl)benzamide], the IC50 against Mps-1 kinase [1] was 1.8 nM; against Mps-1 kinase [2], at most 1 nM.

Regarding `Cc1cc(C(=O)NCC(F)(F)F)ncc1Nc1nc2ccc(-c3ccc(NC(=O)Cc4ccc(F)cc4)cc3)cn2n1` [Example 12.38, 5-{[6-(4-{[(4-fluorophenyl)-acetyl]amino}phenyl)[1,2,4]triazolo[1,5-a]pyridin-2-yl]amino}-4-methyl-N-(2,2,2-trifluoroethyl)-pyridine-2-carboxamide], the IC50 against Mps-1 kinase [2] is at most 1 nM.
